These results are taken from patent US20230042176A1, “METHOD FOR TREATING ANGELMAN SYNDROME AND RELATED DISORDERS” (priority 2019, published 2023).

“Also recorded” adds a separate entry of the source. Where two headings read alike, the source gives them in different places. Peptide text beside a SMILES is read from it. * marks the point of attachment. Cbz = O=C(OCc1ccccc1)*

Series [1] has as its system WT and UBE3A KO human induced neurons. In words: Whole cell patch clamp recordings of human induced neurons (fAHP amplitude, AP firing frequency). It is filed as cell-based. (Patch clamp records ionic current or voltage across a cell membrane.)
For series [2], the system named is neurons of WT and UBE3A KO cortical organoids. In words: Whole cell and perforated patch clamp recordings of neurons in human cortical organoids. As to conditions: for changes in neuronal excitability, fAHP, and network hyperactivity and synchronization in human cortical organoids from UBE3A knockout stem cells: summary statement. It is filed as cell-based. How it is done: Cortical organoids were generated based on a published protocol (Pasca et al., Nat Methods 12, 671-678 (2015)) with minor modifications. hPSCs were dissociated to single cells by TrypLE Express (Thermofisher) and seeded into U-shaped ultra-low attachment 96-well plate (Corning) at a density of 6K cells/well in the presence of thiazovivin (5 μM, Tocris). After spheroid formation, media were completely changed to Neural Induction Media (NIM: DMEM/F12 (Nacalai Tesque), 20% KnockOut Serum Replacement (Thermofisher), 1% minimum essential media-nonessential amino acid (Thermofisher), 1% GlutaMax (Thermofisher), 1% Antibiotic-Antimycotic (Thermofisher), 0.1% β-mercaptoethanol (Thermofisher), 5 μM Dorsomorphin (Tocris), 10 μM SB431542 (Stemgent)) for the next 6 days, with media change every other day. Starting day 7, media were changed to Neural Growth Media (NGM: Neurobasal (Thermofisher), 1:50 B27 without vitamin A (Thermofisher), 1% GlutaMAX (Thermofisher), 1% Antibiotic-Antimycotic (Thermofisher), 20 ng/ml EGF (PeproTech), 20 ng/ml FGF-basic (PeproTech)) for the next 18 days, with media change every other day. Starting day 25, organoids were transferred out of 96-well plates to 6-well plates (6-8 organoids per well), cultured in Organoid Media I (OMI: Neurobasal (Thermofisher), 1:50 B27 without vitamin A (Thermofisher), 1% GlutaMax (Thermofisher), 1% Antibiotic-Antimycotic (Thermofisher), 10 mM HEPES (Thermofisher), 10 ng/ml BDNF (PeproTech), 10 ng/ml NT3 (PeproTech)) until day 100 on an orbital shaker (75 rev/min). After day 100, media were changed to Organoid Media II (OMII: BrainPhys (Stemcell Technologies), 1:50 SM1 (Stemcell Technologies), 1% GlutaMax (Thermofisher), 1% Antibiotic-Antimycotic (Thermofisher), 10 mM HEPES (Thermofisher), 10 ng/ml BDNF (PeproTech), 10 ng/ml GDNF (PeproTech), 10 ng/ml NT3 (PeproTech), 100 μM db-cAMP (Sigma)).
(§1) Whole cell patch clamp recordings of neurons in the organoid (wholemount) and acute mouse hippocampal slices were performed in a recording chamber (RC-26GLP, Warner Instruments) and submerged under continuously perfused artificial CSF (aCSF) containing (in mM): 119 NaCl, 2.5 KCl, 11 glucose, 26 NaHCO3, 1.25 NaH2PO4, 2.5 CaCl2 and 2 MgCl2 saturated with 95% O2 and 5% CO2 at 30-32° C. Neuronal intrinsic excitability was measured in the presence of CNQX (20 μM, Tocris) and APV (50 μM, Tocris) to block all excitatory synaptic responses. We targeted neurons near the surface of organoids with reasonably pyramidal-shaped cell bodies under our DIC/IR camera. […] Signals were recorded using a MultiClamp 700B amplifier, filtered at 2 kHz using a Bessel filter, and digitized at 40 kHz with a Digidata 1550B analog-to-digital (A/D) board (Molecular Devices, Sunnyvale, Calif.). […]

For series [3], the system named is WT and UBE3A KO cortical organoids. In words: Two-photon calcium imaging of cortical organoids. The format is cell-based, human. As to conditions: paxilline 10 μM.
The test system of series [4] is hippocampal neurons of WT and Ube3a m-/p+ mice. Put plainly: Whole cell patch clamp recordings in acute mouse hippocampal slices. It is filed as cell-based. As to conditions: paxilline, postnatal day 28. Here is the method:
as §1
For fAHP analysis in all recordings, automatic detection and calculation was conducted by customized matlab scripts adapted from published algorithm (Bean, Nat Rev Neurosci 8, 451-465 (2007); Platkiewicz and Brette, PLoS Comput Biol 6, e1000850 (2010); Yu et al., J Neurosci 28, 7260-7272 (2008)). […] The fAHP amplitude of each neuron was calculated by averaging the fAHP of the first spike in all current injection steps. […]

Series [5] has as its system WT and Ube3a m-/p+ mice. In words: Flurothyl-induced seizures. The format is in vivo, mouse. As to conditions: paxilline pre-treatment 0.35 mg/kg i.p.; flurothyl 100 μl/min. The text has this: Chamber was cleaned and the tissue paper was replaced before each new trial.
Series [6] deals with WT and Ube3a m-/p+ mice. It is filed as in vivo, mouse. As to conditions: for seizure grade based on Racine's scale: no paxilline. Here is the method:
[…]. Seizure severity of mice was dependent on multiple variables such as picrotoxin dose, mice age, and their body weights. […] Videos were recorded for all the behavioural experiments. Behavioral analysis was performed in a double-blind manner with littermates (siblings of wild-type (Ube3a^m+/p+) and maternal knockout (Ube3a^m−/p+) mice that produced from same pairs of Ube3a^m+/p− females and Ube3a^m+/p+ males).

Series [7] deals with WT and Ube3a m-/p+ mice. Put plainly: In vivo local field potential (LFP) recording in freely moving mice. As to conditions: paxilline 0.35 mg/kg, 4 times with 1-hour interval. The arrangement: species or system mouse. Here is the method: […]. Eye cream was applied to a mouse to protect the eye from drying due to anaesthesia. 2% lidocaine was injected under the scalp and subsequently scalp was removed to expose the skull. […] Stereotrodes were made with platinum-iridium wire (90%:10%, A-M system) and unilaterally implanted into BIC. Stainless steel screw (AP: 2 mm, Lateral: 2 mm) was used as a reference electrode. Iodopavidone was applied for disinfection around the surgical area after dental cement mounting. Mice were maintained on a heating pad at 37° C. until waking from the anaesthesia before putting back to home cages. LFP recordings were performed on the mice 5 days after surgery. LFP recordings were conducted in a copper-Faraday chamber. For evoked LFP, auditory stimulus (˜125 dB, 500 Hz) was provided by a speaker (EKX, Electro-Voice) driven by a customized program in Matlab. LFP was recorded with sampling rate at 500 Hz and filtered with 0.5 Hz high-pass and 100 Hz low-pass by EEG/EMG recording system (Pinnacle). […] Video was recorded simultaneously for further analysis. After all recordings, mice were sacrificed, and their brains were isolated and fixed using 4% PFA in PBS and the implanted electrode locations were confirmed by either bright field imaging or DAPI staining and subsequent fluorescence imaging.

In series [8] the test system is BK protein level in HEK293 cells. In words: BK protein level in HEK293 cells overexpressing UBE3A (immunoblotting). The format is cell-based, human. As to conditions: proteasome inhibitor 1 μM. Here is the method:
Induced neurons or cortical organoids were lysed in RIPA buffer supplemented with protease and phosphatase inhibitor cocktails. Protein samples were loaded onto 8-12% Bis-TRIS (NP0322BOX Invitrogen) and were transferred onto a PVDF membrane. After blocking with 5% milk in TBS-T buffer for 1 hour, PVDF membranes were incubated with primary antibodies overnight at 4° C., followed by 1-hour incubation with mouse or rabbit HRP antibody (1:2000, Invitrogen) at RT. Images were visualized by either chemiluminescence or NIR fluorescent detection using c600 Imaging System (Azure Biosystems Inc). HEK293 cells were grown in DMEM (Sigma) containing 10% FBS (Gibco) and 100 U/mL penicillin-streptomycin (Gibco) in a 5% CO2 incubator. Cells were transfected with a Lipofectamine PLUS (Invitrogen), subsequently were treated with 1 μM of MG132 (A.G Scientific) for another 24 h. Next, cells were lysed in PBS containing 1% SDS (Invitrogen), 1 mM PMSF (USB), 10 μg/ml aprotinin (Roche), and 1% (v/v) phosphatase inhibitor cocktail 2 and 3 (Sigma).
A general note: In western blotting, separated proteins are transferred to a membrane and probed.

Another series relates to healthy human volunteers. As to conditions: i.v. infused for 1 hour; cited from earlier work.

On to `CC(C)(O)[C@H]1O[C@H]2CC[C@@]3(C)[C@@](O)(CC[C@H]4Cc5c([nH]c6ccccc56)[C@@]43C)C2=CC1=O` [Paxilline, (2R,4bS,6aS,12bS,12cR,14aS)-4b-hydroxy-2-(1-hydroxy-1-methylethyl)-12b,12c-dimethyl-5,6,6a,7,12,12b,12c,13,14,14a-decahydro-2H-chromeno[5′,6′:6,7]indeno[1,2-b]indol-3(4bH)-one], for which the “differences in fAHP amplitude and AP firing frequency between KO and WT neurons” value in series [1] (5 μM paxilline) is “normalized”. For the same compound, in series [1] (5 μM paxilline, KO neurons), the “excitability and fAHP in KO neurons” value was “successfully restored excitability and fAHP to WT levels”. Also, the “fAHP in WT neurons” value in series [1] (20 μM paxilline, WT neurons) is given as “significantly lowered fAHP”. Besides, the “fAHP in WT neurons” value in series [1] (paxilline 5 μM, WT neurons) is “did not significantly reduce the fAHP”. For the same compound, the “augmented neuronal excitability and fAHP changes in neurons of KO organoids” value in series [2] (paxilline 10 μM, KO organoids) is “normalized”. In series [2] (paxilline 10 μM, perforated patch recordings, KO organoids), the “spontaneous burst firing in neurons of UBE3A KO organoids” value is reported as “completely converted spontaneous burst firing into single AP firing”. In addition, in series [2], the “changes in neuronal excitability, fAHP, and network hyperactivity and synchronization in human cortical organoids from UBE3A knockout stem cells” value is listed as “normalized”. In [3], the “frequencies and amplitudes of calcium transients in the organoids” value is “decreased both the frequencies and the amplitudes”; the “higher levels of network synchronization in KO and AS iPSC-derived organoids” value is “abolished”. In [4], the “changes in excitability and higher fAHP in neurons from Ube3a m-/p+ mice” value was “normalized”. The “reduction in the latency to myoclonic seizure in Ube3a m-/p+ mice” value in the series with WT and Ube3a m-/p+ mice [5] is listed as “normalized”. Further, the “seizure susceptibility in KO mice” value with WT and Ube3a m-/p+ mice [6] (paxilline high dose 3 mg/kg, KO mice) is reported as “responded positively”. Besides, in the series with WT and Ube3a m-/p+ mice [6] (paxilline high dose 3 mg/kg, WT mice), the “seizure susceptibility in WT mice” value is given as “increased seizure susceptibility”. In the series with WT and Ube3a m-/p+ mice [6] (paxilline pre-treatment 0.35 mg/kg i.p., picrotoxin 3 mg/kg i.p.), the “seizure grade of Ube3a m-/p+ mice versus WT mice” value was “normalize”. The “enhancement in the delta band (1-4 Hz) of LFP in Ube3a m-/p+ mice” value with WT and Ube3a m-/p+ mice [7] is recorded as “normalized”. Moreover, the “seizures caused by paxilline” value with WT and KO mice (10 mg/kg paxilline, WT and KO mice) is on record as “caused seizures”. In the series with WT and KO mice (paxilline 3 mg/kg compared to 0.35 mg/kg, WT mice), the “tremor in WT mice” value is “induced tremor”. In addition, in the series with WT and KO mice (paxilline 3 mg/kg, KO mice), the “tremor in KO mice” value is “not evident”.
Turning to picrotoxin, the “seizure grade based on Racine's scale” value in the series on WT and Ube3a m-/p+ mice [6] (picrotoxin 3 mg/kg i.p., Ube3a m-/p+ mice) is reported as 5 grade; in the series with WT and Ube3a m-/p+ mice [6] (picrotoxin 3 mg/kg i.p., WT mice), 1-2 grade.
As for `CC(C)C[C@@H](C=O)NC(=O)[C@H](CC(C)C)NC(=O)[C@H](CC(C)C)NC(=O)OCc1ccccc1` [MG312] (Cbz-Leu-Leu-Leu-aldehyde), in [8], the “decrease in the BK protein level caused by UBE3A coexpression” value is “abolished”.
For `CCCNc1nc(NCCC)nc(N(C)OC)n1` [GAL-021, 2-N-methoxy-2-N-methyl-4-N,6-N-dipropyl-1,3,5-triazine-2,4,6-triamine], the “fAHP amplitude in KO hINs” value in series [1] (GAL-021 50 μM or 100 μM, KO neurons) is reported as “lowered”; in series [1] (GAL-021 200 μM, KO neurons), “not significantly different from that of 100 μM”; in [1] (GAL-021 200 μM, KO neurons, listed as GAL021), “normalized fAHP”. The “fAHP amplitude (and AP firing frequencies) in WT hINs” value in series [1] (GAL-021 50 μM or 100 μM, WT neurons) was “did not change; also recorded: did not affect”. Also, in series [1] (GAL-021 100 μM), the “spike frequency and fAHP in KO neurons compared with WT hINs” value is reported as “Restoration”. In addition, the “fAHP amplitude in WT hINs” value in series [1] (GAL-021 200 μM, WT neurons) was “lowered”; in [1] (GAL-021 200 μM, WT neurons, listed as GAL021) it was “decreased fAHP”. For the same compound, the “differences in fAHP amplitude and AP firing frequency between KO and WT neurons” value in series [1] (GAL-021 50 or 100 μM) is recorded as “normalized”. For the same compound, the “intrinsic excitability associated with augmented fAHP in UBE3A-deficient human neurons” value in [1] (GAL-021 application (50, 100, 200 μM tested)) is “returns to normal”. The “changes in neuronal excitability, fAHP, and network hyperactivity and synchronization in human cortical organoids from UBE3A knockout stem cells” value in series [2] is “normalized”. The “tolerated i.v. infusion dosage” value in the series on healthy human volunteers is 0.1 to 0.96 mg/kg/h.
